Drawing on US6677368B2, “4-aryl substituted indolinones” (Sugen, Inc., priority 2000, dated 2004), this text covers IC50 for 18 compounds.

Test [1] addresses T1, FLK-1 (Mus musculus, UniProt P35918).
T1 construct: GST-Flklcd purified from sf9 recombinant baculovirus transfomnation (SUGEN, Inc.); host or cells: Sf9 insect cells, recombinant baculovirus
Put plainly: GST-FLK-1 bioassay (tyrosine kinase activity on poly(glu-tyr)). The settings on record: GST-Flk1, poly(glu-tyr) substrate, 0.5 μM ATP. The test is classed as biochemical. Here is the method: This assay analyzes the tyrosine kinase activity of GST-Flk1 on poly(glu-tyr) peptides.
1. Corning 96-well ELISA plates (Corning Catalog No. 25805-96).
2. poly(glu-tyr) 4:1, lyophilizate (Sigma Catalog No. P0275), 1 mg/ml in sterile PBS.
3. PBS Buffer: for 1 L, mix 0.2 g KH2PO4, 1.15 g Na2HPO4, 0.2 g KCl and 8 g NaCl in approx. 900 ml dH2O. When all reagents have dissolved, adjust the pH to 7.2 with HCl. Bring total volume to 1 L with dH2O.
4. PBST Buffer: to 1 L of PBS Buffer, add 1.0 ml Tween-20.
5. TBB—Blocking Buffer: for 1 L, mix 1.21 g TRIS, 8.77 g NaCl, 1 ml TWEEN-20 in approximately 900 ml dH2O. Adjust pH to 7.2 with HCl. Add 10 g BSA, stir to dissolve. Bring total volume to 1 L with dH2O. Filter to remove particulate matter.
6. 1% BSA in PBS: add 10 g BSA to approx. 990 ml PBS buffer, stir to dissolve. Adjust total volume to 1 L with PBS buffer, filter to remove particulate matter.
8. GST-Flklcd purified from sf9 recombinant baculovirus transfomnation (SUGEN, Inc.).
12. Kinase Dilution Buffer (KDB): mix 10 ml Hepes (pH 7.5), 1 ml 5M NaCl, 40 μL 100 mM sodium orthovanadate and 0.4 ml of 5% BSA in dH2O with 88.56 ml dH2O.
13. NUNC 96-well V bottom polypropylene plates, Applied Scientific Catalog #AS-72092
14. EDTA: mix 14.12 g ethylenediaminetetraacetic acid (EDTA) with approx. 70 ml dH2O. Add 10 N NaOH until EDTA dissolves. Adjust pH to 8.0. Adjust total volume to 100 ml with dH2O.
15. 1° and 2° Antibody Dilution Buffer: mix 10 ml of 5% BSA in PBS buffer with 89.5 ml TBST.
16. Anti-phosphotyrosine rabbit polyclonal antisera (SUGEN, Inc.)
17. Goat anti-rabbit HRP conjugate.
18. ABST solution: To approx. 900 ml dH2O add 19.21 g citric acid and 35.49 g Na2HPO4. Adjust pH to 4.0 with phosphoric acid. Add 2,2′-Azinobis(3-ethyl-benzthiazoline-6-sulfonic acid (ABTS, Sigma, Cat. No. A-1888, hold for approx. ½ hour, filter.
19. 30% Hydrogen Peroxide.
20. ABST/H2O2: add 3 μl of H2O2 to 15 ml of ABST solution.
1. Coat Corning 96-well ELISA plates with 2 μg of polyEY in 100 μl PBS/well, hold at room temperature for 2 hours or at […] overnight. Cover plates to prevent evaporation.
2. Remove unbound liquid from wells by inverting plate. Wash once with TBST. Pat the plate on a paper towel to remove excess liquid.
3. Add 100 μl of 1% BSA in PBS to each well. Incubate, with shaking, for 1 hr. at room temperature.
5. Soak wells with 50 mM HEPES (pH7.5, 150 μl/well).
6. Dilute test compound with dH2O/4% DMSO to 4 times the desired final assay concentration in 96-well polypropylene plates.
7. Add 25 μl diluted test compound to each well of ELISA plate. In control wells, place 25 μl of dH2O/4% DMSO.
8. Dilute GST-Flk1 0.005 μg (5 ng)/well in KDB.
9. Add 50 μl of diluted enzyme to each well.
10. Add 25 μl 0.5 M EDTA to negative control wells.
11. Add 25 μl of 40 mM MnCl2 with 4×ATP (2 μM) to all wells (100 μl final volume, 0.5 μM ATP final concentration in each well).
12. Incubate, with shaking, for 15 minutes at room temperature.
13. Stop reaction by adding 25 μl of 500 mM EDTA to each well.
14. Wash 3× with TBST and pat plate on paper towel to remove excess liquid.
15. Add 100 μl per well anti-phosphotyrosine antisera, 1:10,000 dilution in antibody dilution buffer. Incubate, with shaking, for 90 min. at room temperature.
17. Add 100 μl/well of goat anti-rabbit HRP conjugate (1:6,000 in antibody dilution buffer). Incubate, with shaking, for 90 minutes are room temperature.
19. Add 100 μl room temperature ABST/H2O2 solution to each well.
20. Incubate, with shaking for 15 to 30 minutes at room temperature.
21. If necessary, stop reaction by adding 100 μl of 0.2 M HCl to each well.
22. Read results on Dynatech MR7000 ELISA reader with test filter at 410 nM and reference filter at 630 nM.

Test [2] addresses FGFR3 (Homo sapiens, UniProt P22607). Put plainly: FGFR3 kinase inhibition. The test is classed as biochemical.

T1 sequence (P35918 784-1345 limits assumed): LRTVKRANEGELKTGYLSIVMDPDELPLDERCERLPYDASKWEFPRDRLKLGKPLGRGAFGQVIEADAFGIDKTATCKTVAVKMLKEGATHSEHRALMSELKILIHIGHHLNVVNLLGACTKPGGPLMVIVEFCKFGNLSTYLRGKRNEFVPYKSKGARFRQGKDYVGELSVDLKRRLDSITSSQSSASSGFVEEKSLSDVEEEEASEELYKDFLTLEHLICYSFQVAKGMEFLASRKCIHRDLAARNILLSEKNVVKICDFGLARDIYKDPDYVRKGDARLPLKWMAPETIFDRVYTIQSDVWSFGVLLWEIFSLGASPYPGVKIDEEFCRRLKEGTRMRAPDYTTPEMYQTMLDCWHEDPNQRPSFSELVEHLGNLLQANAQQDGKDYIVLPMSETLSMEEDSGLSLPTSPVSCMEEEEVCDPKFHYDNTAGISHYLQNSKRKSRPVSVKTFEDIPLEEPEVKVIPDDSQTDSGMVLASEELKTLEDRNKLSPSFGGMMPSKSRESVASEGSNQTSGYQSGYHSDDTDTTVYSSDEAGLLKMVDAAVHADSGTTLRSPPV
FGFR3, sequence (P22607 23-806, species assumed): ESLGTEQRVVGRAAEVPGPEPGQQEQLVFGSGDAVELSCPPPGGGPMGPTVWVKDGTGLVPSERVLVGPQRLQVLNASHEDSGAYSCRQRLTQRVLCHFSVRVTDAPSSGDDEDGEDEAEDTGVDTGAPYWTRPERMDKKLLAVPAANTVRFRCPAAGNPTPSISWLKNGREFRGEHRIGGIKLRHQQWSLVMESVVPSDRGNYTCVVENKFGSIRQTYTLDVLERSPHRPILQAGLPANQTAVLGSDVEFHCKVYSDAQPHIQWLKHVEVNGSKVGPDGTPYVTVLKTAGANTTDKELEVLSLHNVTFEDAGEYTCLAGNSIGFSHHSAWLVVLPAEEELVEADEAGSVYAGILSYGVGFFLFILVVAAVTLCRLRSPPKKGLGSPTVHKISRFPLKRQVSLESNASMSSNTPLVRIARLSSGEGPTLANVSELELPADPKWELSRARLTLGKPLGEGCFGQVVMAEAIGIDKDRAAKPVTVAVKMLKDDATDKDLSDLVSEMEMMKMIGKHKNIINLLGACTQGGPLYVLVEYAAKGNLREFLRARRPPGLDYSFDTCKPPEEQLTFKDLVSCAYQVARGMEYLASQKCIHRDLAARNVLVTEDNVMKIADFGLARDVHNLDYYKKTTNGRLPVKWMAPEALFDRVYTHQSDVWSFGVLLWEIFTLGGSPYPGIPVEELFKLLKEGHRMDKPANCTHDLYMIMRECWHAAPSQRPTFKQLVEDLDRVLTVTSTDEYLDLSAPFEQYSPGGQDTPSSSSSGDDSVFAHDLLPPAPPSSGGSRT

One may read the IC50 as the midpoint of a concentration-inhibition curve. Read a high IC50 as weaker potency. For the compound `CCN(CC)CCNC(=O)c1c(C)[nH]c(/C=C2\C(=O)Nc3cccc(-c4ccccc4)c32)c1C` [Example 3, 2,4-Dimethyl-5-(2-oxo-4-phenyl-1,2-dihydro-indol-3-ylidenemethyl)-1H-pyrrole-3-carboxylic Acid (2-Diethylamino-ethyl)-amide], 9 nM corresponded to half-maximal inhibition in test [1] (IC50). Same read-out and setting: the figure for `Cc1[nH]c(/C=C2\C(=O)Nc3cccc(-c4ccc(F)cc4)c32)c(C)c1C(=O)N1CCN(C)CC1` [Example 4, 3-[3,5-Dimethyl-4-(4-methyl-piperazine-1-carbonyl)-1H-pyrrol-2-ylmethylene]-4-(4-fluoro-phenyl)-1,3-dihydro-indol-2-one] is 74 nM. On the same count and under the same terms, the figure for `Cc1cc(C(=O)N2CC[C@H](N(C)C)C2)c(/C=C2\C(=O)Nc3cccc(-c4ccc(F)cc4)c32)[nH]1` [Example 10, 3-[3-((S)-3-Dimethylamino-pyrrolidine-1-carbonyl)-5-methyl-1H-pyrrol-2-ylmethylene]-4-(4-fluoro-phenyl)-1,3-dihydro-indol-2-one] is 180 nM. For the compound `Cc1[nH]c(/C=C2\C(=O)Nc3cccc(-c4cccc(F)c4)c32)c(C)c1C(=O)NCCn1ccnn1` [Example 15, 5-[4-(3-Fluoro-phenyl)-2-oxo-1,2-dihydro-indol-3-ylidenemethyl]-2,4-dimethyl-1H-pyrrole-3-carboxylic Acid (2-[1,2,3]Triazol-1-yl-ethyl)-amide], the results for the IC50 in test [1] and in test [2] were 32 nM and 72 nM, respectively. In the same order, the values of `Cc1[nH]c(/C=C2\C(=O)Nc3cccc(-c4ccc(Cl)cc4)c32)c(C)c1C(=O)N1CCN(C)CC1` [Example 20, 4-(4-Chloro-phenyl)-3-[3,5-dimethyl-4-(4-methyl-piperazine-1-carbonyl)-1H-pyrrol-2-ylmethylene]-1,3-dihydro-indol-2-one] are 230 nM and 1290 nM. With `Cc1cc(C(=O)N2CC[C@@H](N(C)C)C2)c(/C=C2\C(=O)Nc3cccc(-c4ccc(Cl)cc4)c32)[nH]1` [Example 25, 4-(4-Chloro-phenyl)-3-[3-((R)-3-dimethylamino-pyrrolidine-1-carbonyl)-5-methyl-1H-pyrrol-2-ylmethylene]-1,3-dihydro-indol-2-one], the IC50 is 180 nM in test [1] and 340 nM in test [2]. Taken in the same sequence, the figures for `Cc1cc(C(=O)N2C[C@@H](C)N[C@@H](C)C2)c(/C=C2\C(=O)Nc3cccc(-c4ccc(Cl)cc4)c32)[nH]1` [Example 27] were 170 nM and 610 nM.

As for `Cc1cc(C(=O)N2CC[C@H](N(C)C)C2)c(/C=C2\C(=O)Nc3cccc(-c4cccc(Cl)c4)c32)[nH]1` [Example 32, 4-(3-Chloro-phenyl)-3-[3-((S)-3-dimethylamino-pyrrolidine-1-carbonyl)-5-methyl-1H-pyrrol-2-ylmethylene]-1,3-dihydro-indol-2-one], the IC50 was determined as 51 nM in test [1] and 1770 nM in test [2].

For `Cc1cc(C(=O)NCCn2ccnn2)c(/C=C2\C(=O)Nc3cccc(-c4cccc(Cl)c4)c32)[nH]1` [Example 34, 2-[4-(3-Chloro-phenyl)-2-oxo-1,2-dihydro-indol-3-ylidenemethyl]-5-methyl-1H-pyrrole-3-carboxylic Acid (2-[1,2,3]Triazol-1-yl-ethyl)-amide], the 50% inhibitory concentration (IC50) was 1060 nM in test [1] and 940 nM in test [2]. In the same order, the values of `Cc1cc(C(=O)N2C[C@@H](C)N[C@@H](C)C2)c(/C=C2\C(=O)Nc3cccc(-c4cccc(Cl)c4)c32)[nH]1` [Example 35, 4-(3-Chloro-phenyl)-3-[3-((cis)-3,5-dimethyl-piperazine-1-carbonyl)-5-methyl-1H-pyrrol-2-ylmethylene]-1,3-dihydro-indol-2-one] are 92 nM and 1990 nM. For the compound `COc1ccc(-c2cccc3c2/C(=C/c2[nH]c(C)c(C(=O)N4C[C@@H](C)N[C@@H](C)C4)c2C)C(=O)N3)cc1` [Example 40, 3-[4-((cis)-3,5-Dimethyl-piperazine-1-carbonyl)-3,5-dimethyl-1H-pyrrol-2-ylmethylene]-4-(4-methoxy-phenyl)-1,3-dihydro-indol-2-one], the IC50 in test [1] is 41 nM; in test [2], 380 nM. In the same order, the values of `COc1ccc(-c2cccc3c2/C(=C/c2[nH]c(C)cc2C(=O)NCCN2CCCC2)C(=O)N3)cc1` [Example 41, 2-[4-(4-Methoxy-phenyl)-2-oxo-1,2-dihydro-indol-3-ylidenemethyl]-5-methyl-1H-pyrrole-3-carboxylic Acid (2-Pyrrolidin-1-yl-ethyl)-amide] are 79 nM and 790 nM. Taken in the same sequence, the figures for `CCN(CC)CCNC(=O)c1c(C)[nH]c(/C=C2\C(=O)Nc3cccc(-c4cccc(OC)c4)c32)c1C` [Example 46, 5-[4-(3-Methoxy-phenyl)-2-oxo-1,2-dihydro-indol-3-ylidenemethyl]-2,4-dimethyl-1H-pyrrole-3-carboxylic Acid (2-Diethylamino-ethyl)-amide] were 9 nM and 9 nM.

The compound `Cc1[nH]c(/C=C2\C(=O)Nc3cccc(-c4ccccc4F)c32)c(C)c1C(=O)N1CCN(C)CC1` [Example 93, 3-[3,5-Dimethyl-4-(4-methyl-piperazine-1-carbonyl)-1H-pyrrol-2-ylmethylene]-4-(2-fluoro-phenyl)-1,3-dihydro-indol-2-one] showed a 50% inhibitory concentration (IC50) in test [1] below 9.1 nM. Same read-out and setting: the figure for `Cc1cc(C(=O)NCCn2ccnn2)c(/C=C2\C(=O)Nc3cccc(-c4ccccc4F)c32)[nH]1` [Example 99, 2-[4-(2-Fluoro-phenyl)-2-oxo-1,2-dihydro-indol-3-ylidenemethyl]-5-methyl-1H-pyrrole-3-carboxylic Acid (2-[1,2,3]Triazol-1-yl-ethyl)-amide] is 170 nM. In test [1], `Cc1[nH]c(/C=C2\C(=O)Nc3cccc(-c4cccc(C(F)(F)F)c4)c32)c(C)c1C(=O)N1CCN(C)CC1` [Example 104, 3-[3,5-Dimethyl-4-(4-methyl-piperazine-1-carbonyl)-H-pyrrol-2-ylmethylene]-4-(3-trifluoromethyl-phenyl)-1,3-dihydro-indol-2-one] registered an IC50 of 66 nM. Same read-out and setting: the figure for `Cc1cc(C(=O)NCCN2CCCC2)c(/C=C2\C(=O)Nc3cccc(-c4ccc(F)c(Cl)c4)c32)[nH]1` [Example 119, 2-[4-(3-Chloro-4-fluoro-phenyl)-2-oxo-1,2-dihydro-indol-3-ylidenemethyl]-5-methyl-1H-pyrrole-3-carboxylic Acid (2-Pyrrolidin-1-yl-ethyl)-amide] is 180 nM; for `CCN(CC)CCNC(=O)c1c(C)[nH]c(/C=C2\C(=O)Nc3cccc(-c4ccc(OC(F)(F)F)cc4)c32)c1C` [Example 140, 2,4-Dimethyl-5-[2-oxo-4-(4-trifluoromethoxy-phenyl)-1,2-dihydro-indol-3-ylidenemethyl]-1H-pyrrole-3-carboxylic Acid (2-Diethylamino-ethyl)-amide] it is 75 nM.
